The results in this text go back to patent US20090012103A1, “SUBSTITUTED HETEROCYCLIC COMPOUNDS” (priority 2007, published 2009).

Data set [1] has as its target wild-type human cardiac sodium channel, hNav1.5 (Homo sapiens, UniProt Q14524). Nature of the data set: Late INa screening assay (late sodium current, PatchXpress whole cell patch clamp). Particulars: read-out: Late INa % blk. It is filed as cell-based.
The target of another data set is hERG potassium channel (Homo sapiens, UniProt Q12809). Nature of the data set: hERG screening assay (PatchXpress patch clamp, CHO cell line).

Read-outs that look alike come from different tables or passages of the source.

Sequence of wild-type human cardiac sodium channel, hNav1.5 (Q14524 whole entry): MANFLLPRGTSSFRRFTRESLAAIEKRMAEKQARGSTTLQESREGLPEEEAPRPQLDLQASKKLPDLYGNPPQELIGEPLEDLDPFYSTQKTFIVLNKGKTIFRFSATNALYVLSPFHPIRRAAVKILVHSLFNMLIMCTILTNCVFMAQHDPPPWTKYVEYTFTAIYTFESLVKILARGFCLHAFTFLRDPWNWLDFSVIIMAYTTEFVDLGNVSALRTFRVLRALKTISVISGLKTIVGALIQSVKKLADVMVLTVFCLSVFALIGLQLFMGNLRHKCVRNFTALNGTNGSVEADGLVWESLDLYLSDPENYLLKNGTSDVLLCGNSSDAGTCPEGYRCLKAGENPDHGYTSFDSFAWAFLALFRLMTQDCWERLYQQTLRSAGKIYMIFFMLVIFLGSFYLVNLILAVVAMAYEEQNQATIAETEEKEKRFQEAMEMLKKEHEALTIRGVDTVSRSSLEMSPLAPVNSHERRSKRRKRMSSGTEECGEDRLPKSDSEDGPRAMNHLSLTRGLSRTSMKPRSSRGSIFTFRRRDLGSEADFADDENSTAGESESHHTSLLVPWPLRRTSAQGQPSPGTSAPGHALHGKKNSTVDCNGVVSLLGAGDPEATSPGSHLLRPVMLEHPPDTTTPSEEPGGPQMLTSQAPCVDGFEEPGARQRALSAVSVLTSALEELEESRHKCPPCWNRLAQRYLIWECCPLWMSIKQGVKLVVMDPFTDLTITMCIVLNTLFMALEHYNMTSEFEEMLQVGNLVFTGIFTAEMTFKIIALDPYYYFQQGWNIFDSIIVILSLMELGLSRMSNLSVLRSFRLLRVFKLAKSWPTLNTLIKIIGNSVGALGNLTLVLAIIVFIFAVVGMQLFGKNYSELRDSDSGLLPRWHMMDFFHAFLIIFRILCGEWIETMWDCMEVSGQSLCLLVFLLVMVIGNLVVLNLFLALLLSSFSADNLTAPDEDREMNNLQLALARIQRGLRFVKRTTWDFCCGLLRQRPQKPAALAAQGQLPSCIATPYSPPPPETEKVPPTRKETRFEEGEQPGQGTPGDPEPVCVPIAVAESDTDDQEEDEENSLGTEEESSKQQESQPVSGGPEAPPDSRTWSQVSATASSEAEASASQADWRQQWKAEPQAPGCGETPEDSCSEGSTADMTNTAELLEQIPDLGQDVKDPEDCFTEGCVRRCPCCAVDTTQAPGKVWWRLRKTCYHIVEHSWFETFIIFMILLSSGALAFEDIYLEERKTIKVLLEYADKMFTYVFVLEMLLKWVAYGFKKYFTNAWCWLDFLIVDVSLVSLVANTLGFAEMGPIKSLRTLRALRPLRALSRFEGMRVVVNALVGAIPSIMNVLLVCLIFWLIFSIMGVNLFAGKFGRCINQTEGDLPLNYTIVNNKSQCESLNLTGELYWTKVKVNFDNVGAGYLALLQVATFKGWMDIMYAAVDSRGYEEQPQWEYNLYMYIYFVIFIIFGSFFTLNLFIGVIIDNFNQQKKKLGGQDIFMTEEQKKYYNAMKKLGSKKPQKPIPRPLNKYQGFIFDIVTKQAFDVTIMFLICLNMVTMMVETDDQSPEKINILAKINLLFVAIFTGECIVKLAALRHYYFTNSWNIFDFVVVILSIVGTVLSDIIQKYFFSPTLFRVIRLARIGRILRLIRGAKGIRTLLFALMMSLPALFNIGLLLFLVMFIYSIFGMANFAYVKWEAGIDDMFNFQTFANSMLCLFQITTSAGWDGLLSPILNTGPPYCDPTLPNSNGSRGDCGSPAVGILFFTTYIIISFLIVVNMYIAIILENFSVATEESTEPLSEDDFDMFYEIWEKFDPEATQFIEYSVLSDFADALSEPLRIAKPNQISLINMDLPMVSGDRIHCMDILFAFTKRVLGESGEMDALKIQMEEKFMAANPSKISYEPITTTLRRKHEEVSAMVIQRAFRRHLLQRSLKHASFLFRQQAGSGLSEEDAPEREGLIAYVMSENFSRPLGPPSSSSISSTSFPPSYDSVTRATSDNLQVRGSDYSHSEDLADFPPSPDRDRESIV
Sequence of hERG potassium channel (Q12809 whole entry): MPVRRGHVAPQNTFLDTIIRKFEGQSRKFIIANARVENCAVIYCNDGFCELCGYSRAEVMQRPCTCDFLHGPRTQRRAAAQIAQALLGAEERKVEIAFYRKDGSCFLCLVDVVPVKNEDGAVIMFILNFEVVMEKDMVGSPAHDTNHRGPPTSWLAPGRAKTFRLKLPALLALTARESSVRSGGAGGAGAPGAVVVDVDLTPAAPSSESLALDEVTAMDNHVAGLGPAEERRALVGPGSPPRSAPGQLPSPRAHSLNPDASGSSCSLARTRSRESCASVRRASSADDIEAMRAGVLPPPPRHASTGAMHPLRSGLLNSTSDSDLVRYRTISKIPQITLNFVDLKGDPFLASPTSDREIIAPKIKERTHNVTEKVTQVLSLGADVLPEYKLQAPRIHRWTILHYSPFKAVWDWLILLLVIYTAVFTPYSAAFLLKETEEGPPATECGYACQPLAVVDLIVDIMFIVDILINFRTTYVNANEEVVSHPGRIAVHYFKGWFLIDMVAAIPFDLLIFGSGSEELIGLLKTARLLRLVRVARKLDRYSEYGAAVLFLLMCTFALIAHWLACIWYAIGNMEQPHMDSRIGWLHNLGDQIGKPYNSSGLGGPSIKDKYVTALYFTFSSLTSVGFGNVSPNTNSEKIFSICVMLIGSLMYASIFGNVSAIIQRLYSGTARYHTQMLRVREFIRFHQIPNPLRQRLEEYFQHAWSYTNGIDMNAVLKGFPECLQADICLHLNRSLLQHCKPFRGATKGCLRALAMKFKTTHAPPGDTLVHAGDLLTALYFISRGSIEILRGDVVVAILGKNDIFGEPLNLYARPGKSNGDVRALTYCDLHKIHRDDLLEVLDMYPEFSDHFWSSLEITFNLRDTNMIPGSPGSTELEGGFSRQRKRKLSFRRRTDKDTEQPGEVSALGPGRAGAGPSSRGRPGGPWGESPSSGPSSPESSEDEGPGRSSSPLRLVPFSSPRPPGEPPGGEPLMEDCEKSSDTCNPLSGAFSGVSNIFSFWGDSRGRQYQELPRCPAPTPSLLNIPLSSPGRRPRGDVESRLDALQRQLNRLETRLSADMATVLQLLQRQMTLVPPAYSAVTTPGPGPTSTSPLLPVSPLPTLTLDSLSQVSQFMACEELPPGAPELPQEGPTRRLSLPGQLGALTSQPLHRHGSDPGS

Consider `CCOC(=O)C1=C(CC)Nc2nnnn2C1c1cccc2ccccc12` (centres unmarked) [PT-010, ethyl 5-ethyl-7-(naphthalen-1-yl)-4,7-dihydrotetrazolo[1,5-a]pyrimidine-6-carboxylate], for which the inhibition at 10 µM in data set [1] (compound at 10 μM) stood at 36.1%. Besides, the “hERG Patch Clamp hERG % blk” value is listed as 12.5% at hERG potassium channel (1 μM) and 30.0% at hERG potassium channel (10 μM).

Regarding `CCOC(=O)C1=C(C)Nc2nnnn2C1c1csc2ccccc12` (centres unmarked) [PT-017, ethyl 7-(benzo[b]thiophen-3-yl)-5-methyl-4,7-dihydrotetrazolo[1,5-a]pyrimidine-6-carboxylate], the inhibition at 10 µM in data set [1] (compound at 10 μM) came to 45.9%. The “hERG Patch Clamp hERG % blk” value worked out at 10.0% at hERG potassium channel (1 μM) and 23.5% at hERG potassium channel (10 μM).

`CCOC(=O)C1=C(C)Nc2nnnn2C1c1sc2ccccc2c1C` (centres unmarked) [PT-018, ethyl 5-methyl-7-(3-methylbenzo[b]thiophen-2-yl)-4,7-dihydrotetrazolo[1,5-a]pyrimidine-6-carboxylate]: the inhibition at 10 µM in data set [1] was determined as 36.5%. For the same compound, the “hERG Patch Clamp hERG % blk” value on hERG potassium channel (1 μM) turned out to be 14.5%; at hERG potassium channel (10 μM), 36.5%.

Take `CCOC(=O)C1=C(C)Nc2nnnn2C1c1cc2ccccc2o1` (centres unmarked) [PT-019, ethyl 7-(benzofuran-2-yl)-5-methyl-4,7-dihydrotetrazolo[1,5-a]pyrimidine-6-carboxylate]: in data set [1] (compound at 10 μM), the inhibition at 10 µM worked out at 35.7%. Besides, the entries for the “hERG Patch Clamp hERG % blk” value at hERG potassium channel (1 μM) and on hERG potassium channel (10 μM) were 10.0% and 26.0%, respectively.

`CC1=C(C(=O)OC(C)C)C(c2cccc3ccccc23)n2nnnc2N1` (centres unmarked) [PT-021, isopropyl 5-methyl-7-(naphthalen-1-yl)-4,7-dihydrotetrazolo[1,5-a]pyrimidine-6-carboxylate]: the inhibition at 10 µM in data set [1] (compound at 10 μM) came out at 48.2%. Also, the “hERG Patch Clamp hERG % blk” value is recorded as 13.0% on hERG potassium channel (1 μM) and 43.5% on hERG potassium channel (10 μM).

As for `CC1=C(C(=O)OCc2ccccc2)C(c2ccccc2-c2ccccc2)n2nnnc2N1` (centres unmarked) [PT-025, benzyl 7-(biphenyl-2-yl)-5-methyl-4,7-dihydrotetrazolo[1,5-a]pyrimidine-6-carboxylate], the inhibition at 10 µM in data set [1] (compound at 10 μM) worked out at 78.8%. Moreover, the “hERG Patch Clamp hERG % blk” value stood at 11.0% on hERG potassium channel (1 μM) and 53.0% at hERG potassium channel (10 μM).

With `COc1ccc2ccccc2c1C1C(C(=O)OCc2ccccc2)=C(C)Nc2nnnn21` (centres unmarked) [PT-030, benzyl 7-(2-methoxynaphthalen-1-yl)-5-methyl-4,7-dihydrotetrazolo[1,5-a]pyrimidine-6-carboxylate], in data set [1] (compound at 10 μM), the inhibition at 10 µM is 66.5%. The results for the “hERG Patch Clamp hERG % blk” value on hERG potassium channel (1 μM) and on hERG potassium channel (10 μM) were 10.5% and 34.5%, respectively.

With `CC1=C(C(=O)OCc2ccccc2)C(c2cccc3c2OCO3)n2nnnc2N1` (centres unmarked) [PT-034, benzyl 7-(benzo[d][1,3]dioxol-4-yl)-5-methyl-4,7-dihydrotetrazolo[1,5-a]pyrimidine-6-carboxylate], the inhibition at 10 µM in data set [1] (compound at 10 μM) was found to be 52.4%. The figures for the “hERG Patch Clamp hERG % blk” value at hERG potassium channel (1 μM) and on hERG potassium channel (10 μM) were 14.5% and 56.0%, respectively.

Regarding `CC1=C(C(=O)OCc2ccccc2)C(c2c3ccccc3cc3ccccc23)n2nnnc2N1` (centres unmarked) [PT-039, benzyl 7-(anthracen-9-yl)-5-methyl-4,7-dihydrotetrazolo[1,5-a]pyrimidine-6-carboxylate], in data set [1] (compound at 10 μM), the inhibition at 10 µM was 82.1%. In addition, the “hERG Patch Clamp hERG % blk” value stood at 10.0% at hERG potassium channel (1 μM) and 27.5% on hERG potassium channel (10 μM).

Take `CC1=C(C(=O)OCc2ccccc2)C(c2csc3ccccc23)n2nnnc2N1` (centres unmarked) [PT-042, benzyl 7-(benzo[b]thiophen-3-yl)-5-methyl-4,7-dihydrotetrazolo[1,5-a]pyrimidine-6-carboxylate]: in data set [1] (compound at 10 μM), the inhibition at 10 µM was found to be 76.5%. The figures for the “hERG Patch Clamp hERG % blk” value on hERG potassium channel (1 μM) and at hERG potassium channel (10 μM) were 11.0% and 52.5%, respectively.

For the compound `CC1=C(C(=O)OCc2ccccc2)C(c2sc3ccccc3c2C)n2nnnc2N1` (centres unmarked) [PT-044, benzyl 5-methyl-7-(3-methylbenzo[b]thiophen-2-yl)-4,7-dihydrotetrazolo[1,5-a]pyrimidine-6-carboxylate], in data set [1] (compound at 10 μM), the inhibition at 10 µM came out at 70.7%. The “hERG Patch Clamp hERG % blk” value on hERG potassium channel (1 μM) was 16.5%; on hERG potassium channel (10 μM) it was 40.0%.

On to `CC1=C(C(=O)O[C@@H](C)c2ccccc2)[C@@H](c2cccc3ccccc23)n2nnnc2N1` [PT-050, (R)-((S)-1-phenylethyl) 5-methyl-7-(naphthalen-1-yl)-4,7-dihydrotetrazolo[1,5-a]pyrimidine-6-carboxylate], for which the inhibition at 10 µM in data set [1] (compound at 10 μM) was 94%. The entries for the “hERG Patch Clamp hERG % blk” value on hERG potassium channel (1 μM) and on hERG potassium channel (10 μM) were 10.0% and 53.5%, respectively.

On to `CC1=C(C(=O)O[C@@H](C)c2ccccc2)C(c2cc3ccccc3o2)n2nnnc2N1` (stereo partly drawn) [PT-059, (S)-1-phenylethyl 7-(benzofuran-2-yl)-5-methyl-4,7-dihydrotetrazolo[1,5-a]pyrimidine-6-carboxylate], for which the results for the “hERG Patch Clamp hERG % blk” value on hERG potassium channel (1 μM) and on hERG potassium channel (10 μM) were 10.0% and 66.5%, respectively.
